{
  "source": "patent US20120172329A1",
  "about": "“PHYTOCHEMICAL COMPOSITIONS INCLUDING XANTHONES FOR ANTI-INFLAMMATORY, ANTI-CYTOKINE STORM, AND OTHER USES” (Thailand Excellence Center for Tissue Engineering, priority 2009, published 2012)",
  "assay_type_in_all_cases": "cell-based",
  "key": {"[1]": {"system": "LPS induced peripheral blood mononuclear cells (PBMCs)", "test": "IL-2 gene expression relative to GAPDH in LPS induced PBMCs incubated with sesamin (RT-PCR), Example Seven", "details": "culture 4, 1.0 ug/ml of sesamin; greatest increase", "protocol": "(§1) Experiments were conducted to evaluate the effect of particular phytochemical compositions provided by the present disclosure on IL-2 gene expression in specified cells found within a body of a living organism. Cells used for the experiment described in this example are LPS induced peripheral blood mononuclear cells (PBMCs). It is understood by a person having ordinary skill in the art that the PBMCs may be substituted for other immune cells found within the body. It is also understood by a person having ordinary skill in the art that other inducing substances or chemicals besides LPS, for example viral antigens, may also be used for inducing the PBMCs.\nTo conduct the experiments of example seven, PBMCs were isolated and prepared using methods or techniques known to a person having ordinary skill in the art. An exemplary method or techniques is the differential density gradient centrifugation technique, the steps or process steps of which is known to a person of ordinary skill in the art. In addition, LPS can be obtained from a commercial source, for example Sigma-Aldrich Co. […]\n(§2) The amount or level of IL-2 gene expression in the PBMCs was measured or determined using methods or techniques known to a person having ordinary skill in the relevant art. In example three, Real-Time PCR (RT-PCR) was used for quantifying the amount of IL-2 gene expression in the PBMCs."}, "[2]": {"system": "lipopolysaccharide (LPS) induced synovial fibroblast (SF) cells", "test": "IL-1 gene expression relative to GAPDH in LPS induced synovial fibroblast cells incubated with sesamin (RT-PCR), Example Five", "protocol": "Experiments were conducted to evaluate the effect of particular phytochemical compositions provided by the present disclosure on IL-1 gene expression in specified cells found within a body of a living organism. The cells used for the experiment described in […] are lipopolysaccharide (LPS) induced synovial fibroblast (SF) cells. The SF cells were isolated from synovium tissue (also referred to as synovial tissue) using a standard cell isolation technique or method that is known to a person of ordinary skill in the art. In addition, LPS is obtained from a commercial source, for example Sigma-Aldrich Co. It is understood by a person having ordinary skill in the art that the SF cells may be substituted with other immune cells found within the body, for example lymphocytes, monocytes, and macrophages. […]\nas §2, with “IL-1” for “IL-2”, “SF cells” for “PBMCs”, “five,” for “three,”, “SF cells. IL-1beta or IL-1β specific primers were used during RT-PCR, thereby facilitating or effectuating the quantification of IL-1β gene expression in the SF cells. […]” for “PBMCs.”"}, "[3]": {"system": "LPS induced peripheral blood mononuclear cells (PBMCs)", "test": "IL-1 released by LPS induced PBMCs incubated with sesamin (ELISA), Example Six", "protocol": "as §1, with “quantity of IL-1 released by” for “IL-2 gene expression in”\nTo conduct the experiments of example six, PBMCs were isolated and prepared using methods or techniques known to a person having ordinary skill in the art. An exemplary method or techniques is the differential density gradient centrifugation technique, the steps or process steps of which is known to a person of ordinary skill in the art. In addition, LPS can be obtained from a commercial source, for example Sigma-Aldrich Co.\nThe PBMCs are cultured in 10% fetal calf serum in RPMI1640 medium. Seven cultures of PBMCs, i.e. culture 1 to culture 7, were prepared. The contents of each of cultures 1 to 7 were as follows:\n(i) Culture 1: First control culture. Includes a predetermined volume of PBMCs (1×10^5 PBMCs/culture);\n(ii) Culture 2: Second control culture. Includes the predetermined volume of PBMCs (1×10^5 PBMCs/culture) and LPS at a concentration of 20 ng/ml;\n(iii) Culture 3: Includes the predetermined volume of the specified concentration of PBMCs, LPS at a concentration of 20 ng/ml, and a volume of phytochemical composition providing 0.1 uM of sesamin; […]\nAfter a predetermined time period, quantity of IL-1 in each of cultures 1 to 7 was quantified using the ELISA technique (e.g., Biotrak Easy ELISA Aersham). The quantity of IL-1 detected by the ELISA technique in each of cultures 1 to 7 reflects the quantity of IL-1 released by the PBMCs of that culture."}},
  "data": [
    {"smiles": "c1cc2c(cc1[C@H]1OC[C@H]3[C@@H]1CO[C@@H]3c1ccc3c(c1)OCO3)OCO2", "note": "[sesamin]", "values": [
      {"measurement": "increase in IL-2 gene expression relative GAPDH", "setting": "[1]", "value": "approximately 220%"},
      {"measurement": "IL-1 gene expression relative to GAPDH decreased", "setting": "[2]; culture 4, 0.025 mM sesamin, vs control culture 3, minimal decrease", "value": "approximately 20%"},
      {"measurement": "IL-1 gene expression relative to GAPDH decreased", "setting": "[2]; culture 9, 1.0 mM sesamin, vs control culture 2, maximal decrease", "value": "approximately 65%"},
      {"measurement": "decrease in quantity of IL-1", "setting": "[3]; culture 3, 0.1 uM sesamin, vs control culture 1, minimum decrease", "value": "approximately 5%"},
      {"measurement": "decrease in quantity of IL-1", "setting": "[3]; culture 4, 0.5 uM sesamin, vs control culture 1, minimum decrease", "value": "approximately 5%"},
      {"measurement": "decrease in quantity of IL-1", "setting": "[3]; culture 7, 10 uM sesamin, vs control culture 2, maximum decrease", "value": "approximately 35%"}
    ]}
  ]
}
